We go through 13 compounds from PMC7617459, “Comparative Evaluation and Profiling of Chemical Tools for the Nuclear Hormone Receptor Family 2” (ACS pharmacology & translational science, 2025).

Data set [1] has as its system TLX. As to conditions: cited from earlier work.
The next data set concerns the target TLX LBD. As to conditions: ITC; cited from earlier work.
The subject of data set [2] is adipocyte-derived stem cells (ASC). As to the kind of experiment: Adipogenesis assay (ASC differentiation, Oil Red O). The data set is classed as cell-based. As to conditions: 18 days. An excerpt:
Using the small collection of NR2 modulators with sufficient reproducible on-target activity and selectivity (6, 7, 9, 11, 12, 13, 19, 21, 22, 23, 25), we next explored their application as a chemogenomics set.[161] To probe the potential of the collection to link phenotypic effects and target in a complex cellular setting, we determined compound effects on the differentiation of adipocyte-derived stem cells (ASC). Under cyclic treatment with insulin, isobutylmethylxanthine, dexamethasone and the PPARγ agonist pioglitazone,[162] these cells develop into adipocytes and accumulate large amounts of fat. However, adipogenesis is orchestrated by many transcription factors[163] and could potentially involve a role of NR2 receptors. […] There was no uniform effect of RXR modulators on fat deposition in adipocytes, possibly due to diverse off-targets of 6 and 11. […] Among TLX ligands the agonist 19 increased the amount of fat and lipid particle size, pointing to enhanced adipogenesis. The inverse TLX agonist 21 had no effect. PNR ligand effects in the adipogenesis model were generally weak.
Differentiation experiments of ASC52telo, hTERT cells (ATCC® SCRC-4000™) were conducted according to a previously described procedure.[162] In brief, the cells were grown in DMEM high-glucose medium supplemented with 10% fetal calf serum, sodium pyruvate (1 mM), penicillin (100 U/mL), and streptomycin (100 μg/mL) at 37 °C and 5% CO2. The cells were seeded in standard culture medium at a density of 5x10^4 cells per well in 96-well plates. After adherence overnight, cells were incubated with differentiation medium, composed of standard culture medium supplemented with human insulin (10 µg/mL, #I3536, Merck KgaA, Darmstadt, Germany), dexamethasone (1 µM, #D4902, Merck KgaA, Darmstadt, Germany,), isobutylmethylxanthine (0.5 mM, #I5879, Merck KgaA, Darmstadt, Germany), DMSO (final concentration 0.1%) and the respective test compounds or pioglitazone at 1 µM. The cells were kept in a differentiation medium for 48-72 h followed by a 24 h incubation with standard culture medium supplemented with 10 µg/mL insulin only. This cycle was repeated five times accounting for a total differentiation time of 18 days. The indicated test compounds at 0.1% DMSO or 0.1% DMSO alone as vehicle control were supplemented freshly with every medium exchange. After the 18-day differentiation procedure and test compound treatment, the cells were washed with phosphate buffered saline (PBS) once and fixed with formalin (10%, stabilized with methanol, 100 µL per well, #15071, Morphisto GmbH, Offenbach am Main, Germany) for 15 min at room temperature. The fixing solution was aspirated, and the fixed cells were washed twice with 50% ethanol solution with the second wash step incubating for 15 min at room temperature to equilibrate the specimens for staining. Oil Red O (#O0625, Merck KgaA, Darmstadt, Germany) was prepared at 0.5% (w/v) in 50% ethanol (v/v) and 5% salicylic acid (w/v), filtered with grade 595 Whatman® filter paper (#311611, Schleicher & Schuell GmbH, London, U.K.) and a 0.2 µm syringe filter (FP 30/0,2 CA-S, #10462200, Schleicher & Schuell GmbH, London, U.K.). Upon equilibration, specimens were incubated with 100 µL of 0.5% Oil Red O solution for 45 min at room temperature before the staining solution was aspirated and the wells were washed once with 50% (v/v) ethanol solution and three times with ddH2O. Specimens were kept in ddH2O for subsequent analysis. For each well, two pictures were taken at a 4x magnification using a Motic®AE31E inverted microscope and a Moticam 1080 (Motic Hong Kong Ltd.). Images were corrected for skewed illumination, Oil Red O crystal precipitates were identified and removed, and the resulting processed pictures were dichromized to extract gray values from the red channel using CellProfiler (Version 4.2.6). […]

Data set [3] relates to RXRα. As to conditions: cited from earlier work; for EC50: reporter gene assay.
The next data set concerns RXRβ. The note with it: cited from earlier work.
Another data set concerns RXRγ. The note with it: cited from earlier work; for EC50: reporter gene assay.
Data set [4] addresses T1, TLX (Homo sapiens, UniProt Q9Y466).
T1 construct: encoding the hinge region and the LBD of the canonical isoform of the respective human nuclear receptors; expressed in transfected cells; host or cells: HEK293T
Kind of data set: Gal4-hybrid reporter gene assay TLX. The note with it: selected test concentration (Figure 3). Format: cell-based.
Method: (§1) HEK293T cells (German Collection of Microorganisms and Cell Culture GmbH, DSMZ) were cultured in Dulbecco’s modified Eagle’s medium (DMEM), high glucose supplemented with 10% fetal calf serum (FCS), sodium pyruvate (1 mM), penicillin (100 U/mL), and streptomycin (100 μg/mL) at 37 °C and 5% CO2 and seeded in 96-well plates (3 × 10^4 cells/well). The medium was changed to Opti-MEM without supplements, and the cells were transiently transfected with one pFA-CMV-hNR-LBD clone, pFR-Luc, and pRL-SV40 using Lipofectamine LTX reagent (Invitrogen, Thermo Fisher Scientific) according to the manufacturer’s instructions. Five hours after transfection, cells were incubated with the test compounds in Opti-MEM supplemented with penicillin (100 U/mL), streptomycin (100 μg/mL), and 0.1% DMSO. Each sample was set up in duplicates and tested in at least three independent experiments. After 16 h incubation, luciferase activity was measured using the Dual-Glo Luciferase Assay System (Promega) according to the manufacturer’s protocol on a Tecan Spark luminometer (Tecan Deutschland GmbH, Crailsheim, Germany). Firefly luminescence was divided by Renilla luminescence and multiplied by 1000 resulting in relative light units (RLUs) to normalize for transfection efficiency and cell growth. Fold activation was obtained by dividing the mean RLU of the test compound by the mean^a RLU of the untreated control, and relative activation was calculated by dividing the fold activation of a test sample by the fold activation of the respective reference agonist. Antagonistic effects were evaluated by coincubation of the test compound with the respective reference ligand.

A further data set has as its system nuclear receptors. As to the kind of experiment: Selectivity profiling in Gal4-hybrid reporter gene assay panel. Format: cell-based, human. The note with it: at active concentration.
Another data set deals with COS-7 cells. As to the kind of experiment: Multiplex toxicity assay. As to conditions: 24 h, at active concentration. Format: cell-based. As for the experimental part:
COS-7 cells (DSMZ #ACC 60) were cultured at 37°C and 5% CO2 in DMEM high glucose medium supplemented with sodium pyruvate (1 mM), penicillin (100 U/mL), streptomycin (100 µg/mL), and 10% fetal calf serum (FCS). After aspirating the wells, the cells were seeded at 1x10^5 cells per well in complete culture medium. […] Each sample was prepared in at least 4 biologically independent replicates. After incubation for 24 h, the wells were aspirated and incubated for 30 min with stimulation medium containing 1 µM NucView® 405 fluorogenic caspase-3 substrate (#10405, Biotium, Fremont, USA) and Live-or-Dye Nuc-Fix Red (0.05x, Biotium, Inc., Fremont, CA, 1691 USA) to detect apoptosis and necrosis, respectively. After incubation, a total of 6 fluorescence images per well at 10x magnification were taken to detect NucView®-positive (Ex: 381–400 nm, Em: 414–450 nm) and Live-or-Dye-positive cells (Ex: 543−566 nm, Em: 580−611 nm) using on a Tecan Spark Cyto (Tecan Group AG). Reference readings for background correction and detection of auto-fluorescence were taken at 414–450 nm prior to staining. Thereafter, wells were aspirated, the cells were incubated for 3 h with 90 µL culture medium (0.2% FCS) and 10 µL Cell Counting Kit-8 solution (CCK-8, MedChem Express #HY-K0301), and absorbance was measured at 1, 2, and 3h of incubation at 450 nm on a Tecan Spark Cyto to assess metabolic activity of the cells. Before drug administration, after the first medium exchange, 24 h after drug administration, and after fluorescence imaging cell confluence was assessed using the Tecan Spark Cyto, to account for changes in cell confluence due to drug administration and cell handling. The number of apoptotic cells, metabolic activity, and changes in cell confluence in response to drug treatment were all normalized to the vehicle control of each biological replicate individually.

In a further data set the test system is TLX-regulated genes. The note with it: cited from earlier work.
The subject of data set [5] is fructose-1,6-bisphosphatase 1 (FBP1). Set-up: method as in PMID 33114319. The note with it: HepG2 cells; cited from earlier work.
The test system of a further data set is human insulin promoter. The note with it: insulin promoter assay; cited from earlier work.
For a further data set, the target named is T2, HNF4α (Homo sapiens, UniProt P41235).
T2 sequence (P41235 147-377 limits assumed): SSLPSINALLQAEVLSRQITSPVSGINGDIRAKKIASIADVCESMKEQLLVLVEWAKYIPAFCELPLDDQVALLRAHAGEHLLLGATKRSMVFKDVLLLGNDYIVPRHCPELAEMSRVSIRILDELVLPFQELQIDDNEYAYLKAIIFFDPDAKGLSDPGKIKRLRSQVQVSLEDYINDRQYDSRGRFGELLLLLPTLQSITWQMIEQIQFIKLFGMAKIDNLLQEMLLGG
As to the kind of experiment: Gal4-hybrid reporter gene assay HNF4α. As to conditions: 30 µM, HEK293T.

Data set [6] has as its target T3, RXRα (Homo sapiens, UniProt P19793).
T3 sequence (P19793 227-458 limits assumed): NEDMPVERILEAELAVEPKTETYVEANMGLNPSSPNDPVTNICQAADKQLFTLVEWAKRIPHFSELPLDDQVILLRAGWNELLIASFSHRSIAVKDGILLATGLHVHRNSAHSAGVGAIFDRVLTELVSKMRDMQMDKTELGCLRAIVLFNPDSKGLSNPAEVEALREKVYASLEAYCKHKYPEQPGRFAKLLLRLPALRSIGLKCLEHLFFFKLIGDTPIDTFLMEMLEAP
Kind of data set: Gal4-hybrid reporter gene assay RXRα.
Method: as §1

In data set [7] the target is TLX. The note with it: cited from earlier work. The source holds these as a separate data set.
For data set [8], the system named is TLX. As to conditions: read-out: EC50 TLX activation; cellular reporter gene assay; cited from earlier work.
The test system of another data set is TLX expression. The note with it: cited from earlier work.
The next data set relates to full-length TLX. As to conditions: reporter gene assay; cited from earlier work.
[9] abbreviates: reporter gene assays, read-out: IC50 (counteracting TLX repressor activity).
[10] abbreviates: reporter gene assay, read-out: RXRβ cellular activity/potency.
Where [11] appears, read: read-out: RXRγ cellular activity/potency.

Read-outs that look alike come from different tables or passages of the source.

T1 sequence (Q9Y466 155-383 limits assumed): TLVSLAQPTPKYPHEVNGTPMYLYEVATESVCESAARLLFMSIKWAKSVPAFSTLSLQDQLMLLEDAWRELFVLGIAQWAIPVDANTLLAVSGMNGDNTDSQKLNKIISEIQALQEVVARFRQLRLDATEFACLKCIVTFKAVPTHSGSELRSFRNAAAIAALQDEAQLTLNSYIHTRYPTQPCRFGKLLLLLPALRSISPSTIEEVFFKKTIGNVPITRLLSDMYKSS
Method for HNF4α: as §1
Method for nuclear receptors: Compounds were tested at concentrations around EC90 according to the literature or at the highest nontoxic concentration (from the multiplex toxicity assay). […] (b) Selectivity profiling of NR2 modulators in a representative panel of nuclear receptors outside the NR2 family. […] Effects <5% of the respective reference ligands were considered as not relevant and omitted. Only effects are shown that are statistically significant against VP16 ctrl (Figure S3); n = 3.
as §1

On to `Cn1c(=O)c2[nH]c(-c3ccccc3Cl)nc2n(C)c1=O` [compound 20, 8-(2-chlorophenyl)-theophylline], for which, in the data set with TLX [1] (setting [9]), the IC50 was 500 nM. In addition, on TLX LBD, the Kd was 800 nM.

Consider `O=C(O)[C@@H]1C[C@H]1c1nc(-c2ccccc2)c(-c2cc(C(F)(F)F)cc(C(F)(F)F)c2)o1` [compound 7], for which the “Oil red O positive area (amount of fat)” value in data set [2] is on record as “affected neither”. Moreover, the “fat droplet (particle) size” value in [2] was “affected neither”. Further, the EC50 in the data set on RXRα [3] (read-out: RXRα cellular activity/potency) is 0.005 µM; in the data set on RXRβ (setting [10]), 1.4 nM; with RXRγ (setting [11]) it was 4 nM.

On to `Cn1c(=O)c2[nH]c(-c3ccccc3)nc2n(C)c1=O` [compound 21, 8-Phenyl-theophylline], for which, at TLX [4], the TLX modulation entry is on record as “inverse agonism”. The “selectivity over other nuclear receptors” value in the data set with nuclear receptors is recorded as “selective over other nuclear receptors”. Also, in the data set on COS-7 cells, the cytotoxicity result was “non-toxic”. Further, in [2], the “Oil red O positive area (amount of fat)” value is reported as “no effect” and the “fat droplet (particle) size” value is reported as “no effect”.

With `CC(C)NCC(O)COc1cccc2ccccc12` (stereo not shown) [compound 18, propranolol], the “TLX-regulated SIRT1 and PTEN/TET3 expression” value in the data set with TLX-regulated genes (qRT-PCR) is “modulated”.

With `O=C(O)c1cc(-c2ccccc2)ccc1O` [compound 4], the “expression of HNF4 target gene FBP1” value in data set [5] is “diminished expression”.

Turning to `Cc1cc2c(cc1C1(c3ccc(C(=O)O)cn3)CC1)C(C)(C)CCC2(C)C` [compound 10], the EC50 is […] in the data set with RXRβ (setting [10]) and […] with RXRγ (setting [11]).

For `CC(Cc1cccc(C(F)(F)F)c1)NCCOC(=O)c1ccccc1` (stereo not shown) [compound 2, benfluorex], the EC50 in the data set on human insulin promoter was 24.4 µM. For the same compound, on HNF4α, the “effects on HNF4 activity” value is given as “no effects”.

Consider `CC1=C2[C@H](/C=C(\C)C(=O)O)CC[C@@H](C)[C@H]2CC1` [compound 9, Valerenic acid], for which the RXRα fold activation in the data set on RXRα [3] is 9 fold act. For the same compound, the EC50 in the data set on RXRα [3] (read-out: RXRα EC50) was 27 µM; in the data set on RXRβ (reporter gene assay, read-out: RXRβ EC50), 5200 nM; in the data set on RXRγ (read-out: RXRγ EC50), 43000 nM. Besides, in the data set on RXRβ, the RXRβ fold activation is reported as 69 fold act. Besides, the RXRγ fold activation with RXRγ was 4 fold act. In addition, at RXRα [6] (10 µM), the RXRα activation result is “weak RXRα activation”.

In the case of `CCCCCOc1cc2c(cc1-c1cc(/C=C/C(=O)O)ccc1O)C(C)(C)CCC2(C)C` [compound 12], the IC50 in the data set on RXRβ (reporter gene assay, no precise value reported, read-out: RXRb cellular activity/potency (antagonist)) was about 50 nM. At RXRα [6] (1 µM, coincubation with bexarotene), the “effect on bexarotene-induced RXR activation” value was “robustly blocked”.

Take `CCN(CCCc1ccccc1)CCCc1ccccc1` [compound 3, alverine]: in the data set with human insulin promoter, the EC50 was 3.5 to 6.8 µM. In addition, on HNF4α, the “effects on HNF4 activity” value is “no effects”.

Consider `CC(C)c1c(CN(C)C(C)Cc2ccccc2)n(C)n(-c2ccccc2)c1=O` (stereo not shown) [compound 14], for which, at TLX [7], the Kd was 6.6 µM. Also, the EC50 with TLX [8] is 9.2 µM.

With `Cn1c(=O)[nH]c2nc[nH]c2c1=O` [1-methylxantine], the IC50 in the data set on TLX [1] (setting [9]) was 9000 nM.

With `CCCCOc1cc(C(=O)Nc2cc(-n3cnc(C)c3)cc(C(F)(F)F)c2)c2ccccc2n1` [compound 19], the TLX modulation result on TLX [4] was “TLX activation”. In addition, in the data set on nuclear receptors, the “selectivity over other nuclear receptors” value was “selective over other nuclear receptors”. Further, in the data set with COS-7 cells, the cytotoxicity entry was “non-toxic”. In addition, in [2], the “Oil red O positive area (amount of fat)” value is “increased” and the “fat droplet (particle) size” value is reported as “increased”. Besides, in the data set with TLX-regulated genes, the SIRT1 expression entry is on record as “induced SIRT1 expression”. Besides, in the data set on TLX expression, the TLX expression levels result is recorded as “no effect”. In the data set with TLX [1] (read-out: Gal4-TLX EC50), the EC50 is 250 nM. Besides, the IC50 in the data set with TLX [1] (reporter gene assay, read-out: IC50 (first value of cell)) is 250 nM. In the data set with full-length TLX, the EC50 is 700 nM. In addition, on TLX LBD, the Kd is 500 nM.
